Results as given in patent US20200223840A1, “SUBSTITUTED PYRROLIDINE AMIDES III” (Gruenenthal GMBH, priority 2019, published 2020).

Target: T1, human glucocorticoid receptor (Homo sapiens, UniProt P04150)
T1 construct: host or cells: IM9 human lymphoblast cells, cytosol fraction
T1 sequence (P04150 1-777): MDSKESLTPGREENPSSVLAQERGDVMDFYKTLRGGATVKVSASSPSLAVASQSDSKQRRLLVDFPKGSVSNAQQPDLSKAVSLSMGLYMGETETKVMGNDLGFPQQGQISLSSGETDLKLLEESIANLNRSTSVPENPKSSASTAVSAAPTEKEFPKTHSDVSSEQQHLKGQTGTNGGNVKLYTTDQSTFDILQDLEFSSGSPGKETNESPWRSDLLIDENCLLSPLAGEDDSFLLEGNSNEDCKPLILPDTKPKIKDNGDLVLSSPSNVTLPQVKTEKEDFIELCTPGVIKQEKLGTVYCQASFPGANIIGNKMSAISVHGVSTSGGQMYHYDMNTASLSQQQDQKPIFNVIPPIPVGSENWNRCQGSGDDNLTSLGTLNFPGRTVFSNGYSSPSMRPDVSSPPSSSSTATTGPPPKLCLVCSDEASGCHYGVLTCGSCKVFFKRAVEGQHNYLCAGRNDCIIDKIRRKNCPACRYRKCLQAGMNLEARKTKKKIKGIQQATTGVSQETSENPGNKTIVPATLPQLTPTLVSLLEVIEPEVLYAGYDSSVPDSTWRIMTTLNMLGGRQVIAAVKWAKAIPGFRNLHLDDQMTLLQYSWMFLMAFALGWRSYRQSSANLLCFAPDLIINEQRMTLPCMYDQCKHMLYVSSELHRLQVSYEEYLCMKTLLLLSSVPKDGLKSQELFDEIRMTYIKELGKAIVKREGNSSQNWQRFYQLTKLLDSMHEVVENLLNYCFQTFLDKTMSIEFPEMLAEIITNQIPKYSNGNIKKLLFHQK
Assay: Human glucocorticoid receptor (hGR) ligand-binding assay, 3H-dexamethasone, IM9 cytosol
Settings: read-out: % inhibition hGR at 1 μM
Description: Preferably, the glucocortitcoid receptor extracted from cytosol of IM9 cells is used for competitive radioligand binding assays to calculate percentage inhibition of the binding of radiolabeled ligand 3H-dexamethasone at the human glucocorticoid receptor.
The human lymphoblast cell line IM9 (ATCC, Bethesda, Md.) was cultivated in RPMI 1640 media containing 10% fetal bovine serum, penicillin (100 U/ml), streptomycin (100 μg/ml), and 2 mM L-glutamine at […] and 7% CO2 in a humidified incubator. Cells were centrifuged for 10 minutes at 1500 g and were washed in PBS and repelleted. Cell were then resuspended in homogenization buffer consisting of: 10 mM TES, 10 mM sodium molybdate, 1 mM EDTA, pH 7.4, 20 mM 2-mercaptoethanol, and 10% glycerol. Disruption of the cells was performed by nitrogen cavitation using 2×15 minutes at 600 to 750 psi nitrogen in a N2 cavitator at 0° C. The cell preparation was then centrifuged at 27,000 g for 15 minutes, and the resultant supernatant (=cytosol of IM9 cells) was centrifuged at 103,000 g for 60 minutes at 4° C. The amount of protein in the supernatant fraction was determined using a BCA assay kit and aliquots were snap frozen in a dry ice-acetone bath and stored at −70° C. […] 100 μl of the supernatant) was finally assayed for radioactivity by liquid scintillationspectrometry, and percentage inhibition of 3H-dexamethasone binding was calculated.

## Cc1cnc(C(=O)N[C@H]2[C@H](c3ccccc3)N(c3ccc4c(cnn4-c4ccc(=O)n(C)c4)c3)C(=O)C2(C)C)s1 [Example 26, N-[(2S,3R)-4,4-Dimethyl-1-[1-(1-methyl-6-oxo-1H-pyridin-3-yl)-1H-indazol-5-yl]-5-oxo-2-phenyl-pyrrolidin-3-yl]-5-methyl-thiazole-2-carboxylic acid amide]
  inhibition at 1 µM: 28%
